Laboratory results as given in patent US20220395487A1, “RIG-I INNATE IMMUNE RECEPTOR ANTAGONISTS AND METHODS OF USING SAME” (YALE UNIVERSITY, priority 2019, published 2022).

Assays:
[1] = biological target: T1, RIG-I (Homo sapiens, UniProt O95786); assay: ADP-Glo ATPase assay; type: biochemical; parameters: The native, full-length protein was expressed and purified using methods adapted from published protocols; SUMO (pET-SUMO vector; captured on Ni-NTA) (N, cleaved yes); made in house; host or cells: Rosetta II(DE3) Escherichia coli; conditions: Poly I:C RNA activation, read-out: apparent IC50, RIG-I ATPase inhibition
T1 sequence (O95786 1-925): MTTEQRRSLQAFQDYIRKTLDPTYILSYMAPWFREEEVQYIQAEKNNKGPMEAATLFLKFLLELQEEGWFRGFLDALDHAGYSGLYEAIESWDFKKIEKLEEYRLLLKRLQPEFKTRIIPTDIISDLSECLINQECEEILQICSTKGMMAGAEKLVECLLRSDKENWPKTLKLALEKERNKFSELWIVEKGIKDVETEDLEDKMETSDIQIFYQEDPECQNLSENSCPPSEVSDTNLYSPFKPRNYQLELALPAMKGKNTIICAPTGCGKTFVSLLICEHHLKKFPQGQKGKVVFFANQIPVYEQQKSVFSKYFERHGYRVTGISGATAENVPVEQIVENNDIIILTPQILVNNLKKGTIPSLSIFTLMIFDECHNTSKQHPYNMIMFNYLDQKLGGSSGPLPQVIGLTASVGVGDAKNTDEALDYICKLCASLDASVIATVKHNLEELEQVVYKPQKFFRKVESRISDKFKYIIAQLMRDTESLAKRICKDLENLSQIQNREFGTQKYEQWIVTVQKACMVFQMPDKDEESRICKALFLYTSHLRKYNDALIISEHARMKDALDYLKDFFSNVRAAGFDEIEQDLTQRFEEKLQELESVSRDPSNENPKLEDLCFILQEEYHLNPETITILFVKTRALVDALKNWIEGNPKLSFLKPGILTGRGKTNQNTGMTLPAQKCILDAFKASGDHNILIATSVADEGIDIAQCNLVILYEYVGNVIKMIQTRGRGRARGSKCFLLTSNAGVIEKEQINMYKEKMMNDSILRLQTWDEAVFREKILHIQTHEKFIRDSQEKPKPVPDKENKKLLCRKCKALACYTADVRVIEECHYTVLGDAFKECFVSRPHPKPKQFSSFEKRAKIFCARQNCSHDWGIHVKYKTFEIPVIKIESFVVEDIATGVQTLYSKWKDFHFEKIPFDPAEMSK
Description: For the ADP-Glo assay system (V9101, Promega), RIG-I protein was diluted to 10 nM in assay buffer (25 mM MOPS pH 7.4, 150 mM NaCl, 2 mM DTT, and 2 mM Mg^2). For HTS experiments, Poly I:C RNA was used for RIG-I activation, and added to a final concentration of 0.4 μg/ml. To initiate the ATPase reactions, ATP was added to a final concentration of 200 μM. To test compounds, a 12-point serial dilution of the small molecule of interest was combined with DMSO, keeping the DMSO levels at a constant 1% throughout the entire drug dilution. Final drug concentrations ranged from 0 to 200 μM. The final volume for reaction was 20 μL per well, measured in a Corning 384-well plate (Plate ID: 3658). Reactions were allowed to proceed at room temperature for one hour, after which 2.5 μL of the ADP-Glo Reagent was added to each well. Samples were incubated at 25° C. for 45 min to terminate the ATPase reaction and deplete the remaining ATP. Next, 5 μL of Kinase Detection Reagent was added to each well in order to convert the ADP product back to ATP, which is then used as a substrate for the luminescent reporter, which was read on a Biotek Synergy HI Plate Reader.
Slopes from the twelve point curves were fit to a non-competitive, four variable inhibition curve in order to obtain IC50 values:
where X is Log10 [compound], Y is luminescence, Top and Bottom are the plateaus at Ymin and Ymax. […]

[2] = biological target: T1, RIG-I; assay: NADH-coupled ATPase assay; type: biochemical; parameters: The native, full-length protein was expressed and purified using methods adapted from published protocols; SUMO (pET-SUMO vector; captured on Ni-NTA) (N, cleaved yes); made in house; host or cells: Rosetta II(DE3) Escherichia coli; conditions: for IC50: NADH-coupled ATPase assay; for RIG-I ATPase inhibition, result in words: SAR discussion of Table 1 compounds
Description: In this case, RIG-I was activated by a well-defined synthetic RNA hairpin duplex (SLR10-OH), which was added to a final concentration of 250 nM. A coupled assay mixture consisting of 1 mM NADH, 100 U/ml lactic dehydrogenase, 500 U/ml pyruvate kinase, 2.5 mM phosphoenol pyruvic acid was added to the sample. A 12-point serial dilution of the compound of interest was added in a DMSO vehicle such that DMSO concentrations were kept at a constant 2% over the entire drug dilution. The final concentration ranges for drug dilutions varied from compound to compound based on the potency of the small molecule in question. The dilutions covered ranges from 0 to as high as 100 μM (see association figures). Samples were incubated for at least 1 hour at RT. Reactions were initiated by the addition of a 1:1 ATP/MgCl2 mix to a final concentration of 5 mM.
The rate of ATP hydrolysis was determined indirectly by monitoring the conversion of NADH to NAD^+ that results in a loss of sample absorbance at 340 nm. Absorbance was measured over a 20 min time course using a sweeping read at 10 second intervals and a gain setting of 120 on a Biotek Synergy H1 Plate Reader. Mean kobs values were extrapolated for each time course and plotted against drug concentration, then fit to Eq. (1) to determine IC50 values. Each point was a based on two trials of three biological replicates with error bars representing the Standard deviation.

[3] = biological target: T1, RIG-I; assay: IFN-β/Firefly dual-luciferase reporter assay in HEK 293T cells transfected with hRIG-I; type: cell-based; conditions: HEK293T cells, SLR14 challenge
Description: Two different assays were used for evaluating RIG-I inhibition in cells. In the first assay, HEK 293T cells were used to test the influence of compounds on RIG-I signaling activity while simultaneously reporting on relative toxicity. In this case, inhibitor compounds were introduced via growth media replacement rather than by direct addition to cell plates. Specifically, HEK 293T cells (which express RIG-I only under the control of a transfected plasmid) were grown and maintained in T75 flasks containing Dulbecco's Modified Eagle Medium, DMEM (Life Technologies) supplemented with 10% heat-inactivated fetal bovine serum (Hyclone) and non-essential amino acids (Life Technologies). For the IFN-β induction assays, 0.5 ml of cells at 65,000 cells/ml was placed (seeded) in 24-well plates. After 24 h, each well of cells was transfected with 5 ng WT pUNO-hRIG-I (Invivogen), 6 ng pRL-TK constitutive Renilla luciferase reporter plasmid (Promega) and 150 ng of an IFN-β/Firefly luciferase reporter plasmid using the Lipofectamine 2000 transfection reagent (Life Technologies) following the manufacturer's protocol. Protein expression was allowed to proceed for 24 hours. In parallel, a six-point dilution series of each compound of interest was made in a DMSO vehicle and then diluted further into DMEM such that a constant DMSO concentration of 1% is maintained over the entire drug dilution. The DMEM growth media was aspirated from each well of cells and replaced with DMEM that contains the drug. After 30 minutes, the cells were challenged by transfection with 1 μg of the synthetic stem-loop RNA (SLR14) in Lipofectamine 2000. After 5-6 hours, cells were harvested for luminescence analysis in the following manner: Growth media was aspirated from each well, and 100 μl of passive lysis buffer (Promega) was added. Lysis proceeded for 15 min at room temperature. Lysates were clarified by centrifugation, and 20 μl samples of the supernatant were transferred to a 96-well assay plate for analysis using the Dual-Luciferase Reporter Assay System (Promega). Luminescence was measured using a Biotek Synergy H1 plate reader. The resulting Firefly luciferase activity (i.e. the induction of IFN-0) was normalized to the activity of the constitutively expressed Renilla luciferase to account for differences in confluency, transfection efficiency and cell viability across sample wells.

[4] = SLR10-OH activated, mean ± standard deviation, 3 measurements, read-out: IC50

IC50 [2, 4]	SMILES	also measured
	CC1(C)C(=O)N=C2C1=C(O)C(=O)c1ccccc12 [RIG001, 4-Hydroxy-3,3-dimethyl-2H1,3H,5H1-benzo[g]indole-2,5-dione]	IC50 [1]: 19000 ± 3000 nM; IC50 ([2]; read-out: IC50 value in the coupled assay system): 12000 ± 1000 nM
6300 ± 600 nM	COC1=C2C(=NC(=O)C2(C)C)c2ccccc2C1=O [RIG002, 4-Methoxy-3,3-dimethyl-2H,3H,5H-benzo[g]indole-2,5-dione]	
	COc1c2c(c3ccccc3c1OC)N(C)C(=O)C2(C)C [RIG003, 4,5-Dimethoxy-1,3,3-trimethyl-1H,2H,3H-benzo[g]indol-2-one]	inhibition of RIG-I signaling / IFN induction, result in words [3]: did not influence levels of IFN induction or RIG-I response
	COc1c2c(c3ccccc3c1OC)NC(=O)C2(C)C [RIG004, 4,5-Dimethoxy-3,3-dimethyl-1H,2H,3H-benzo[g]indol-2-one]	RIG-I ATPase inhibition, result in words [2]: loss of function
2600 ± 200 nM	CC1(C)C(=O)N=C2C1=C(OCc1ccccc1)C(=O)c1ccccc12 [RIG005, 4-Benzyloxy-3,3-dimethyl-2H,3H,5H-benzo[g]indole-2,5-dione]	
2100 ± 200 nM	CC(C)COC1=C2C(=NC(=O)C2(C)C)c2ccccc2C1=O [RIG006, 4-(2,2-Dimethylethoxy)-3,3-dimethyl-2H,3H,5H-benzo[g]indole-2,5-dione]	
1800 ± 100 nM	CCOC1=C2C(=NC(=O)C2(C)C)c2ccccc2C1=O [RIG007, 4-Ethoxy-3,3-dimethyl-2H,3H,5H-benzo[g]indole-2,5-dione]	
1800 ± 300 nM	CC1(C)C(=O)N=C2C1=C(OCc1nc3ccccc3[nH]1)C(=O)c1ccccc12 [RIG008, 4-(1H-1,3-Benzodiazol-2-ylmethoxy)-3,3-dimethyl-2H,3H,5H-benzo[g]indole-2,5-dione]	
2400 ± 300 nM	O=C1C(O)=C2C(=NC(=O)C23CCCCC3)c2ccccc21 [RIG009, 4-Hydroxy-2,5-dihydrospiro[benzo[g]indole-3,1′-cyclohexane]-2,5-dione]	
4700 ± 300 nM	O=C1C(OCc2ccccc2)=C2C(=NC(=O)C23CCCCC3)c2ccccc21 [RIG010, 4-(Benzyloxy)-2,5-dihydrospiro[benzo[g]indole-3,1′-cyclohexane]-2,5-dione]	
890 ± 40 nM	CCC1(CC)C(=O)N=C2C1=C(O)C(=O)c1ccccc12 [RIG011, 3,3-Diethyl-4-hydroxy-2H,3H,5H-benzo[g]indole-2,5-dione]	RIG-I ATPase inhibition, result in words [2]: nanomolar IC50 values
2100 ± 200 nM	CC1(C)C(=O)N=C2C1=C(OCc1ccc3ccccc3c1)C(=O)c1ccccc12 [RIG013, 3,3-Dimethyl-4-(naphthalen-2-ylmethoxy)-2H,3H,5H-benzo[g]indole-2,5-dione]	IC50 ([3]; compound in growth medium, read-out: IC50, inhibition of RIG-I signaling (IFN induction luciferase)): 1360 nM
